# Experimental data taken from article PMC3401513 (Molecular imaging and biology : MIB : the official …, 2012).
# “And” between values parts separate entries of the source, which are not always exact repeats. Identical values can stand only once. Like-named read-outs stand apart in the source and are kept apart here.
# Target: integrin αvβ3 (Homo sapiens, UniProt P05106+P06756)
# Details: for decrease in BpND after blocking with an excess amount of unlabeled RGD peptide: blocked vs unblocked; for tumor washout (time-activity curves): MDA-MB-435 tumor, unblocked
# [1] = Blocked: c(RGDyK) injected 10 min before scanning, tumor region, MDA-MB-435 tumor-bearing mice, 60-min dynamic PET, mean ± SD, n = 4/group
# [2] = Blocked: c(RGDyK) injected 10 min before scanning, tumor region, MDA-MB-435 tumor-bearing mice, 60-min dynamic PET, three-compartment model fit, mean ± SD, n = 4/group
# [3] = MDA-MB-435 tumor-bearing mice, n = 4/group
# [4] = 60-min dynamic PET, n = 4/group
# Sequence of integrin αvβ3 (P06756 31-889 limits assumed): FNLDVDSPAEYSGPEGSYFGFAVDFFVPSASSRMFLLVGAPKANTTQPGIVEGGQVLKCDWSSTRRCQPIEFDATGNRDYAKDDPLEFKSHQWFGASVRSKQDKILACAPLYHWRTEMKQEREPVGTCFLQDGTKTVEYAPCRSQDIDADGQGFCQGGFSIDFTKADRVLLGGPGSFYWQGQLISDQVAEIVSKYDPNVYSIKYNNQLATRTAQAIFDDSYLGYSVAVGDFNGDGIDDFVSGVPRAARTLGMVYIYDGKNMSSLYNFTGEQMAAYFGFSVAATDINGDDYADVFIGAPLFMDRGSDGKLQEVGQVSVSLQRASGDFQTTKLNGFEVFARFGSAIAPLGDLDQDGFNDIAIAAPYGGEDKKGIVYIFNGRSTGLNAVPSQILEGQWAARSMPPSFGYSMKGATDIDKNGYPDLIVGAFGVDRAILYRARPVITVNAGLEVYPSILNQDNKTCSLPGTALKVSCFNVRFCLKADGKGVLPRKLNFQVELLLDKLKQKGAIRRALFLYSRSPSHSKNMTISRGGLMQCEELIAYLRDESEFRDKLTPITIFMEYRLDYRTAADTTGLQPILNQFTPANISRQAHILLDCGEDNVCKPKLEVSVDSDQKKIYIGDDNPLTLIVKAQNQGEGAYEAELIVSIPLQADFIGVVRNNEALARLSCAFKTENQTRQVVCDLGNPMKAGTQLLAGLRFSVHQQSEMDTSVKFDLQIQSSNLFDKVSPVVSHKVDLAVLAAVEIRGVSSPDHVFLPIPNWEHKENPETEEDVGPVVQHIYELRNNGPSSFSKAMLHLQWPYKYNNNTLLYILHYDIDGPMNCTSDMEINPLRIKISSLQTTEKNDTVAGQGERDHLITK
# Sequence of integrin αvβ3 (P06756 891-1048 partner limits assumed): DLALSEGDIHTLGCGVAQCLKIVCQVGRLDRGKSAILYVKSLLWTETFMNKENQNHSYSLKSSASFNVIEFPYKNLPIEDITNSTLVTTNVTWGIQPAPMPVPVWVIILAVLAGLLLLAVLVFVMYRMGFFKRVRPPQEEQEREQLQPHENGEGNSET
# Sequence of integrin αvβ3 (P05106 27-788): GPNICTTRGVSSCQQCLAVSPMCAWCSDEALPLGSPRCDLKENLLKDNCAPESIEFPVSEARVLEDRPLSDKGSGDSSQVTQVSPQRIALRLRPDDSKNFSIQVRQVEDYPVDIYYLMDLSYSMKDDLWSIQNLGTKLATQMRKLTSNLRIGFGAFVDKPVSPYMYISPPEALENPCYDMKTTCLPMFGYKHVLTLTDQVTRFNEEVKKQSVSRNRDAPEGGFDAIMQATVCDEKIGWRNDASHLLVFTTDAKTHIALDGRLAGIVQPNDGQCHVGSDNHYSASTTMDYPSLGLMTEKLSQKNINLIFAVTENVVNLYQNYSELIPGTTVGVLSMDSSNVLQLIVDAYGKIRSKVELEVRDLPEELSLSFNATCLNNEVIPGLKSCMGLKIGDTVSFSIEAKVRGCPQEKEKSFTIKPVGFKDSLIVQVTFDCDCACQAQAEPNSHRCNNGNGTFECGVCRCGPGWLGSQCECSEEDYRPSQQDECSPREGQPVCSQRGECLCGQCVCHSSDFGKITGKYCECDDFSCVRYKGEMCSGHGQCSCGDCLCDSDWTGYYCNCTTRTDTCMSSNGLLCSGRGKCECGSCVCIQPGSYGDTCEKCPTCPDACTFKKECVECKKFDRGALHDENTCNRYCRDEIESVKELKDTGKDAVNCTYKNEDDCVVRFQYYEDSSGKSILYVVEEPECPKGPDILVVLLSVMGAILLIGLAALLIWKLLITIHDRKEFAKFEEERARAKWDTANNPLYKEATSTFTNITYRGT
BpND (binding potential = k3/k4) [1],k3 (on-rate for specific binding) [2],"BpND (binding potential = k3/k4) (Unblock, tumor region, MDA-MB-435 tumor-bearing mice, 60-min dynamic PET, three-compartment model, mean ± SD, n = 4/group, listed as RGD Monomer)",decrease in BpND after blocking with an excess amount of unlabeled RGD peptide [3],"K1 (transfer from arterial plasma to tissue) (mouse, in vivo)",tumor washout (time-activity curves) [4],"BpND (binding potential = k3/k4) (Unblock, tumor region, MDA-MB-435 tumor-bearing mice, 60-min dynamic PET, three-compartment model, mean ± SD, n = 4/group)","k2 (clearance from tissue) (mouse, in vivo)",k4 (target dissociation rate) [2],"BpND (binding potential = k3/k4) (Unblock, tumor region, MDA-MB-435 tumor-bearing mice, 60-min dynamic PET, three-compartment model, mean ± SD, n = 4/group, listed as RGD Dimer)","specific bound component (Cm) in the tumor region relative to the monomer (at 1-h, separated by model fitting)",Substance
1.110±0.155,0.051 ± 0.016 min⁻¹,2.747±0.483,~ 60%,0.276 ± 0.256 mL/g/min,–,–,–,–,–,–,^18F-FP-c(RGDyK) [^18F-FPRGD]
–,–,–,–,–,most rapid tumor washout,0.89 ± 0.19 and 0.893±0.192,0.334 ± 0.092 min⁻¹,–,–,–,"^18F-FP-c(RADyK) [^18F-FPRAD, reference compound]"
1.257±0.293,0.064 ± 0.023 min⁻¹,–,~ 80%,0.082 ± 0.031 mL/g/min,much slower tumor washout,–,–,0.050 ± 0.009 min⁻¹,5.865±0.312,almost twice as much,^18F-FP-PEG3-E[c(RGDyK)]2 [^18F-FPPRGD2]
